#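 These data come from cells grown in 96-well plates and exposed to compound for 48 hours at five concentrations. GI50 is the concentration that inhibits growth by half.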 The source made the active and inactive calls. Rule as the data show it: active = GI50 up to about 1.1 µM and inactive = higher.
# Assays:
# Experiment in all cases: NCI anticancer screen, dose series, 48 h
# [1] = system: SNB-19
# [2] = system: XF498
# [3] = system: SW-620
# [4] = system: M14
# [5] = system: SK-MEL-5
# [6] = system: OVCAR-3
# [7] = system: UO-31
# [8] = system: HOP-92
# [9] = system: RPMI-8226
# [10] = system: SNB-75
# [11] = system: NCI-H460
# [12] = system: M19-MEL
# [13] = system: A549
# [14] = system: NCI-H226
# [15] = system: LXFL 529
# [16] = system: DLD-1
# [17] = system: KM12
# [18] = system: SF-539
# [19] = system: HL-60
# [20] = system: Malme-3M
# [21] = system: SK-MEL-28
# [22] = system: TK-10
# [23] = system: K562
# [24] = system: U-251
# [25] = system: OVCAR-4
# [26] = system: SK-OV-3
# [27] = system: MOLT-4
# [28] = system: HT-29
# [29] = system: HCC 2998
# [30] = system: RXF 393
# [31] = system: MDA-MB-435
# [32] = system: COLO 205
# [33] = system: 786-0
# [34] = system: UACC-62
# [35] = system: CAKI-1
# [36] = system: Hs-578T
# [37] = system: MDA-MB-231
# [38] = system: HCT-15
# [39] = system: HCT-116
# [40] = system: SF-295
# [41] = system: NCI/ADR-RES
# [42] = system: SF-268
# [43] = system: IGROV-1
# [44] = system: CCRF-CEM
# [45] = system: ACHN
# [46] = system: DU-145
# [47] = system: MCF7
# [48] = system: SK-MEL-2
# [49] = system: PC-3
# [50] = system: LOX IMVI
# [51] = system: T47D
# [52] = system: UACC-257
# [53] = system: SN12C
# [54] = system: OVCAR-8
# [55] = system: NCI-H522
# [56] = system: BT-549
# [57] = system: A498
# [58] = system: OVCAR-5
# [59] = system: HOP-62
# [60] = system: MDA-N
# [61] = system: NCI-H23
# [62] = system: EKVX
# [63] = system: SR
smiles,measurement,setting,value
COc1cc(C2c3cc4c(cc3[C@@H](NCCN(C)C)C3COC(=O)[C@H]23)OCO4)cc(OC)c1O (some centres undefined),GI50,[1],0.598 µM (active)
same,GI50,[2],0.2 µM (active)
same,GI50,[3],0.296 µM (active)
same,GI50,[4],0.255 µM (active)
same,GI50,[5],0.133 µM (active)
same,GI50,[6],1.34 µM (inactive)
same,GI50,[7],0.284 µM (active)
same,GI50,[8],0.0303 µM (active)
same,GI50,[9],0.29 µM (active)
same,GI50,[10],0.13 µM (active)
same,GI50,[11],< 0.01 µM (active)
same,GI50,[12],0.91 µM (active)
same,GI50,[13],0.0207 µM (active)
same,GI50,[14],0.0156 µM (active)
same,GI50,[15],1.82 µM (inactive)
same,GI50,[16],1.46 µM (inactive)
same,GI50,[17],0.931 µM (active)
same,GI50,[18],0.0585 µM (active)
same,GI50,[19],0.0127 µM (active)
same,GI50,[20],0.36 µM (active)
same,GI50,[21],0.309 µM (active)
same,GI50,[22],1.69 µM (inactive)
same,GI50,[23],0.407 µM (active)
same,GI50,[24],0.0687 µM (active)
same,GI50,[25],3.09 µM (inactive)
CO[C@H]1C=CO[C@@]2(C)Oc3c(C)c(O)c4c(O)c(c(CN5CCN(C)CC5)c(O)c4c3C2=O)NC(=O)/C(C)=C\C=C[C@H](C)[C@H](O)C(C)[C@@H](O)C(C)[C@H](OC(C)=O)[C@@H]1C (some centres undefined),GI50,[1],> 100 µM (inactive)
same,GI50,[26],> 100 µM (inactive)
same,GI50,[27],5.87 µM (inactive)
same,GI50,[3],13.1 µM (inactive)
same,GI50,[4],24.2 µM (inactive)
same,GI50,[28],21.6 µM (inactive)
same,GI50,[29],44.4 µM (inactive)
same,GI50,[30],48.3 µM (inactive)
same,GI50,[31],27.5 µM (inactive)
same,GI50,[32],5.7 µM (inactive)
same,GI50,[5],24.3 µM (inactive)
same,GI50,[6],2.88 µM (inactive)
same,GI50,[33],21.3 µM (inactive)
same,GI50,[7],33.7 µM (inactive)
same,GI50,[8],71.4 µM (inactive)
same,GI50,[34],34.6 µM (inactive)
same,GI50,[35],> 77.1 µM (inactive)
same,GI50,[36],> 100 µM (inactive)
same,GI50,[37],34.4 µM (inactive)
same,GI50,[38],30.8 µM
same,GI50,[39],13.4 µM (inactive)
same,GI50,[40],> 100 µM (inactive)
same,GI50,[41],> 100 µM (inactive)
same,GI50,[9],4.62 µM (inactive)
same,GI50,[10],72.9 µM (inactive)
same,GI50,[42],50.2 µM (inactive)
same,GI50,[11],39.6 µM (inactive)
same,GI50,[43],33.8 µM (inactive)
same,GI50,[44],4.39 µM (inactive)
same,GI50,[45],> 75.3 µM (inactive)
same,GI50,[13],39.7 µM (inactive)
same,GI50,[46],34.8 µM (inactive)
same,GI50,[14],> 63.5 µM (inactive)
same,GI50,[47],11.1 µM (inactive)
same,GI50,[17],45.6 µM (inactive)
same,GI50,[18],24.8 µM (inactive)
same,GI50,[19],23.1 µM (inactive)
same,GI50,[48],41.8 µM (inactive)
same,GI50,[49],17 µM (inactive)
same,GI50,[20],40.6 µM (inactive)
same,GI50,[50],14.3 µM (inactive)
same,GI50,[21],90.4 µM (inactive)
same,GI50,[51],26.7 µM (inactive)
same,GI50,[52],21 µM (inactive)
same,GI50,[53],30.3 µM (inactive)
same,GI50,[54],20 µM (inactive)
same,GI50,[55],18.3 µM (inactive)
same,GI50,[56],45.9 µM (inactive)
same,GI50,[22],49.4 µM (inactive)
same,GI50,[57],> 100 µM (inactive)
same,GI50,[58],> 100 µM (inactive)
same,GI50,[23],20.9 µM (inactive)
same,GI50,[59],17.7 µM (inactive)
same,GI50,[60],44.3 µM (inactive)
same,GI50,[24],32.7 µM (inactive)
same,GI50,[61],14.6 µM (inactive)
same,GI50,[25],27.5 µM (inactive)
same,GI50,[62],68.5 µM (inactive)
same,GI50,[63],6.62 µM (inactive)
